# Reference: patent US7528205B2, “Photo radical generator, photo sensitive resin composition and article” (Dai Nippon Printing Co., Ltd., priority 2003, dated 2009)
# Tests used:
# [1] = Evaluation 1 of curability (coating layer with trifunctional acrylate, UV exposure, no hydrogen donor); conditions: for Reaction rate (decrement of double bond): nitrogen; for Compatibility with M305: imide part/double bond 1/50
# Experimental: (§1) Using a trifunctional acrylate (product name; M-305, manufactured by Toagosei Co., Ltd.) as polyfunctional monomers, the compounds 1 to 14, the comparative compounds 2 and 3 and a photoradical generator Irgacure 907 (product name; manufactured by Ciba Specialty Chemicals) were mixed with each polyfunctional monomer to prepare each THF solution of each photoradical generator.
# (§2) The mixing was performed so that a ratio of the photoradical generator to the polyfunctional monomer is such that number of imide part of each of the compounds 1 to 14 and the comparative compounds 2 and 3 with respect to number of double bond of the polyfunctional monomer is 1/50 (number of imide part/number of polyfunctional monomer) or, in the case of Irgacure, number of the molecule with respect to number of double bond of the polyfunctional monomer is 1/50 (number of Irgacure 907/number of polyfunctional monomer).
# (§3) Each solution was applied by spin coating to a glass substrate on which chromium was sputtered to obtain coating layers. Also, a layer without initiator component or comparative compounds and only containing trifunctional acrylate was formed as a blank.
# (§4) A decrement of the peak at 810 cm^−1 was recorded with time by using an infrared spectrometer (product name: FTS6000; manufactured by BIO RAD) while exposing the above coating layer to ultraviolet rays, to confirm the degree of the disappearance of a double bond. The atmosphere around the sample during measurement was replaced with nitrogen. As the UV exposure apparatus, UV Spot Cure SP-III type (standard reflecting mirror type) manufactured by Ushio Inc. was used and as the UV lamp, USH-255BY (manufactured by Ushio Inc.) was used.
# [2] = Evaluation of heat resistance (thermogravimetry, 5% reduction in weight temperature); type: physicochemical; conditions: for 5% heat decomposition temperature: temperature rise rate 10° C./min; for 5% heat decomposition temperature / heat resistance / 5% reduction in weight temperature, comparison in words: nitrogen atmosphere; for residue on heating: heated to 600° C. in a nitrogen atmosphere; for heat resistance / 5% reduction in weight temperature, comparison in words: 10° C./min
# Experimental: Herein, the 5% reduction in weight temperature means a temperature at which the weight of a sample is reduced […] when a decrement of weight is measured using a thermogravimetric analyzer according to the same method as in the examples of the present invention as will be explained later. Similarly, the 10% reduction in weight temperature means a temperature at which the weight of a sample is reduced […].
# Using a differential type differential thermal balance (product name: TG8120; manufactured by Rigaku Corporation), the 5% reduction in weight temperature of each of the compounds 1 to 15 was measured at a temperature rise rate of 10° C./min in a nitrogen atmosphere. As comparative examples, the comparative compounds 2 and 3 and a self-cleavage type photoradical generator Irgacure 907 (trademark; manufactured by Ciba Specialty Chemicals) were similarly measured.
# [3] = Evaluation 2 of curability (triethanolamine added as hydrogen donor)
# Experimental: as §1, §2, §3, §4
# In order to confirm whether or not the seven-membered ring imide structure-containing group was a hydrogen-drawing type radical generator, triethanolamine was added to THF solutions containing each of the compositions 1 to 14 used in the aforementioned Evaluation 1 of curability and trifunctional acrylate M305, coating layers were formed in the same manner as in the aforementioned Evaluation 1 of curability, and evaluated similarly. As comparative examples, each of the comparative compounds 1 and 3 was used.
Compatibility with M305 [1],5% heat decomposition temperature [2],Compatibility with M305 [3],Compound,Reaction rate (decrement of double bond) ([1]; Exposure 50 mJ),Reaction rate (decrement of double bond) ([1]; Exposure 100 mJ),Reaction rate (decrement of double bond) ([1]; Exposure 400 mJ),Reaction rate (decrement of double bond) ([3]; Exposure 50 mJ),Reaction rate (decrement of double bond) ([3]; Exposure 100 mJ),Reaction rate (decrement of double bond) ([3]; Exposure 400 mJ),residue on heating [2],"heat resistance / 5% reduction in weight temperature, comparison in words [2]"
∘,233 °C,∘,C=CC(=O)OCCn1c(=O)c2ccccc2c2ccccc2c1=O [Compound 7],1.5%,3.4%,7.7%,25.3%,30.1%,41.3%,carbide was left not decomposed completely,–
∘,240 °C,∘,CC(=O)OCCn1c(=O)c2ccccc2c2ccccc2c1=O [Compound 2],0.1%,0.2%,1.2%,23.7%,29.4%,41.1%,–,–

# Continued, compound first:
Compound,Compatibility with M305 [1],5% heat decomposition temperature [2],Compatibility with M305 [3],Reaction rate (decrement of double bond) ([1]; Exposure 50 mJ),Reaction rate (decrement of double bond) ([1]; Exposure 100 mJ),Reaction rate (decrement of double bond) ([1]; Exposure 400 mJ),Reaction rate (decrement of double bond) ([3]; Exposure 50 mJ),Reaction rate (decrement of double bond) ([3]; Exposure 100 mJ),Reaction rate (decrement of double bond) ([3]; Exposure 400 mJ),residue on heating [2],"heat resistance / 5% reduction in weight temperature, comparison in words [2]"
CC(=O)OCCN(CCn1c(=O)c2ccccc2c2ccccc2c1=O)C(C)=O [Compound 14],∘,234 °C,∘,1.0%,2.0%,6.4%,16.8%,20.9%,30.5%,–,–
CN(C)CCn1c(=O)c2ccccc2c2ccccc2c1=O [Compound 13],∘,177 °C,∘,0.2%,0.8%,4.2%,11.0%,15.2%,24.8%,–,slightly lower 5% reduction in weight temperature
C=COCCCn1c(=O)c2ccccc2c2ccccc2c1=O [Compound 5],∘,213 °C,∘,0.4%,0.7%,2.3%,23.8%,29.2%,41.0%,–,–
C=CC(=O)OCCOCCn1c(=O)c2ccccc2c2ccccc2c1=O [Compound 8],∘,357 °C,∘,5.0%,7.3%,21.4%,36.2%,41.4%,51.4%,carbide was left not decomposed completely,specifically high
O=c1c2ccccc2c2ccccc2c(=O)n1CCOCCn1c(=O)c2ccccc2c2ccccc2c1=O [Compound 10],∘,204 °C,∘,4.0%,6.8%,17.4%,30.8%,40.7%,45.9%,–,–
"CSc1ccc(C(=O)C(C)(C)N2CCOCC2)cc1 [Irg907, reference compound]",∘,207 °C,–,34.8%,40.8%,50.6%,–,–,–,–,–
